Test results as given in patent publication US6710075B2, “Therapeutic compounds and methods” (The Government of the State of Sarawak, Malaysia, priority 2000, dated 2004).
pIC50: −log10 of the molar value. Like-named read-outs stand apart in the source and are kept apart here.

Experiments:
A549 cells [1] = assay: DNA content analysis (cell cycle and viability) of A549 cells, 6 days; format: cell-based, human; conditions: A549, 10 nM
Experimental: (§1) A549 cells were cultured for 6 days with the indicated concentration of Compound A or 1 μM paclitaxel then collected and fixed in 70% ethanol prior to staining with propidium iodide and DNA content determined by flow cytometry. The numbers indicate the % of cells in the various cell cycle phases relative to all cells with ≧2N DNA content and also the % dead cells (ie. subdiploid≦2N cells) to the left of the marker that arose during the culture period.
To help identify a potential mechanism for the effects of Compound A, DNA content analysis was performed to determine where in the cell cycle it exerted its effect (FIG. 4). […] This contrasts to the effects of paclitaxel a drug known to act selectively at the G2/M phases of the cell cycle (FIG. 4). As the concentration of Compound A was increased and its cytotoxic effects became evident the proportion of cells in the S and G2/M phases decreased with a corresponding rise in cells in G0/G1 phases. […] Thus, compared to THP-1 cells (see FIG. 2) higher concentrations of Compound A are required to inhibit progression through the G0/G1 phases of the cell cycle in A549 cells.

A549 cells [2] = assay: DNA synthesis, [14C]-thymidine uptake, A549 cells; format: cell-based, human; conditions: Homo sapiens, A549, 72 h
Text: (§2) (a) Compounds A and B were identified from a bark sample of Aglaia leptantha through their ability to inhibit production of Tumour Necrosis Factor-α (TNF-α) by THP-1 human promonocytic leukemia cells (Tsuchiya, et al, Int. J. Cancer, 1980, 26(2):171-6) activated with lipopolysaccharide (LPS). Table 4 summarises the results comparing the activity of Compounds A and B for inhibition of TNF-α production to their effects on general cell metabolism measured using WST-1 reduction, DNA synthesis and protein synthesis assays for THP-1 cells. […] For comparison, the effects of Compounds A and B on A549 lung epithelial carcinoma cells (Leiber et al, Int. J. Cancer, 1976, 17(1)-62-70) were also measured and the data is also included in Table 4.

[3] = tested on: Tumour Necrosis Factor-α (TNF-α); assay: Inhibition of TNF-α production by LPS-activated THP-1 cells (sandwich ELISA); format: cell-based, human; conditions: 18 hours
Text: as §2

[4] = tested on: Intercellular Adhesion Molecule-1 (ICAM-1); assay: IL-1-induced ICAM-1 surface expression by A549 cells (Delfia); format: cell-based, human; conditions: 24 hours, read-out: IC50 ICAM-1 Production
Text: as §2

A549 cells [5] = assay: Senescence-associated β-galactosidase (SA-β-gal) activity staining; format: cell-based, human; conditions: A549, 10-50 nM, 10 days
Experimental: A549 cells were seeded at 10,000 cell/well in 6 well plates in the presence or absence of varying concentrations of Compound A (10-50 nM) or 250 nM doxorubicin for 10 days prior to their processing and staining overnight for senescence-associated β-galactosidase activity as described previously (Dimri et al., 1995, Proc Natl Acad Sci USA 1995 92(20):9363-7). […] PC, phase contrast microscopy. BF, bright field microscopy Magnification×200.
This was evaluated further by measuring senescence-associated β-galactosidase (SA-β-gal) activity, a biomarker previously described to correlate well with senescence of human cells (Dimri et al., Proc Natl Acad Sci USA 1995 92(20):9363-7). […] Therefore, in addition to Compound A A549 cells were also treated with doxorubicin as an experimental control.

A549 cells [6] = assay: Protein synthesis, [14C]-leucine uptake, A549 cells; format: cell-based, human; conditions: Homo sapiens, A549, 72 h
Text: as §2

[7] = Body weight in the mouse xenograft tumour model; format: in vivo
Experimental: The ability of Compound A to inhibit growth of human tumour cells in vivo was assessed using male athymic mice injected subcutaneously in the dorsal flank region with 2×10^6 PC3 human prostate tumour cells. Compound A administration (3 mg/kg) by intraperitoneal injection commenced after eight days once the PC3 tumour was palpable and continued three times a week until 29 days after the initial inoculation of the tumour cells. At this time all mice were killed and tumours excised and weighed.

THP-1 cells [8] = assay: Acute general protein biosynthesis inhibition, [14C] leucine incorporation, THP-1 cells; format: cell-based, human; conditions: 1 hour pretreatment + 2 hours label, read-out: IC50 Protein synthesis
THP-1 cells [9] = assay: DNA content analysis (cell cycle and viability) of THP-1 cells; format: cell-based, human; conditions: THP-1, 10 nM, 2 days
Experimental: as §1, with “THP-1” for “A549”, “2” for “6”, “1000 nM” for “1 μM”, “marker (the vertical line)” for “marker”

A549 cells [10] = assay: Proliferation of A549 cells, haemocytometer counting of trypan blue stained cells; format: cell-based, human; conditions: for cell death: after 9 days
Experimental: A549 cells were seeded at ˜10,000 cells/well and cultured in the presence of the indicted concentrations of Compound A or paclitaxel. Cells were collected and the viable cell number determined by haemocytometer counting of trypan blue stained cells at the various times. The results are the averages ±SEM of triplicate cultures.
The cytostatic effect of Compound A on the proliferation of A549 cells was confirmed by directly counting the number of cells at intervals over a nine day period (FIG. 3). When compared to untreated cells 10 nM Compound A prevented the increase in cell number by more than 95% with fewer than 10% dead cells observed at this time (measured by trypan blue exclusion). Thus, under these conditions the decreased cell number can not simply be accounted for by increased cell death. […] At the higher concentrations of 50 nM and 250 nM Compound A had cytotoxic effects and increased cell death to 86% and 100% respectively after 9 days and accounts for the decline in cell number to levels below the original staring number at this time. At the non-cytotoxic concentration of 10 nM, Compound A has a rapid and potent cytostatic effect on A549 cells.

COC(=O)[C@H]1[C@@H](O)[C@@]2(O)c3c(OC)cc(OC4OC(C(O)CO)COC4OC)cc3O[C@@]2(c2ccc(OC)cc2)[C@@H]1c1ccccc1 (single isomer, unassigned) [Compound A]
cell cycle distribution (A549 cells [1]): a minor decline in the proportion of cells in the G0/G1 phases of the cell cycle with a concomitant increase in cells in the G2/M phases | pIC50 (A549 cells [2]): 8.15 | pIC50 [3]: 7.22 | pIC50 [4]: 5.70 | SA-β-gal activity (A549 cells [5]): failed to induce SA-β-gal activity | pIC50 (A549 cells [6]): 7.70 | body weight ([7]; 3 mg/kg intraperitoneal three times a week, vs control): unaffected | decrease in mean body weight ([7]; over the duration of the experiment, similar in control group): ~12% | pIC50 (THP-1 cells [8]; Homo sapiens, THP-1, THP-1 cells): ~7.52 | pIC50 (THP-1 cells [8]; THP-1 cells): 7.57 | cell cycle phase accumulation (THP-1 cells [9]): caused cells to accumulate in the G0/G1 phases of the cell cycle | accumulation of dead cells (THP-1 cells [9]; untreated 7%): 17% | dead cells (trypan blue exclusion) (A549 cells [10]; A549, 10 nM): < 10% | prevention of the increase in cell number compared to untreated cells (A549 cells [10]; A549, 10 nM, nine day period): more than 95% | cell death (A549 cells [10]; A549, 50 nM): 86% | cell death (A549 cells [10]; A549, 250 nM): 100%
